Experimental findings from US9663525B2, “Pyrazolopyrimidinyl inhibitors of ubiquitin-activating enzyme” (Millennium Pharmaceuticals, Inc., priority 2012, dated 2017) are described below.

Molecules are shown by their SMILES.

In this assay the target is recombinant human UAE (Homo sapiens (Human), UniProt P22314). In words: Ubiquitin Activating Enzyme (UAE) HTRF assay, human UAE. For orientation: TR-FRET usually uses a lanthanide donor and a delayed reading to cut background.
Chain of recombinant human UAE (P22314 whole entry): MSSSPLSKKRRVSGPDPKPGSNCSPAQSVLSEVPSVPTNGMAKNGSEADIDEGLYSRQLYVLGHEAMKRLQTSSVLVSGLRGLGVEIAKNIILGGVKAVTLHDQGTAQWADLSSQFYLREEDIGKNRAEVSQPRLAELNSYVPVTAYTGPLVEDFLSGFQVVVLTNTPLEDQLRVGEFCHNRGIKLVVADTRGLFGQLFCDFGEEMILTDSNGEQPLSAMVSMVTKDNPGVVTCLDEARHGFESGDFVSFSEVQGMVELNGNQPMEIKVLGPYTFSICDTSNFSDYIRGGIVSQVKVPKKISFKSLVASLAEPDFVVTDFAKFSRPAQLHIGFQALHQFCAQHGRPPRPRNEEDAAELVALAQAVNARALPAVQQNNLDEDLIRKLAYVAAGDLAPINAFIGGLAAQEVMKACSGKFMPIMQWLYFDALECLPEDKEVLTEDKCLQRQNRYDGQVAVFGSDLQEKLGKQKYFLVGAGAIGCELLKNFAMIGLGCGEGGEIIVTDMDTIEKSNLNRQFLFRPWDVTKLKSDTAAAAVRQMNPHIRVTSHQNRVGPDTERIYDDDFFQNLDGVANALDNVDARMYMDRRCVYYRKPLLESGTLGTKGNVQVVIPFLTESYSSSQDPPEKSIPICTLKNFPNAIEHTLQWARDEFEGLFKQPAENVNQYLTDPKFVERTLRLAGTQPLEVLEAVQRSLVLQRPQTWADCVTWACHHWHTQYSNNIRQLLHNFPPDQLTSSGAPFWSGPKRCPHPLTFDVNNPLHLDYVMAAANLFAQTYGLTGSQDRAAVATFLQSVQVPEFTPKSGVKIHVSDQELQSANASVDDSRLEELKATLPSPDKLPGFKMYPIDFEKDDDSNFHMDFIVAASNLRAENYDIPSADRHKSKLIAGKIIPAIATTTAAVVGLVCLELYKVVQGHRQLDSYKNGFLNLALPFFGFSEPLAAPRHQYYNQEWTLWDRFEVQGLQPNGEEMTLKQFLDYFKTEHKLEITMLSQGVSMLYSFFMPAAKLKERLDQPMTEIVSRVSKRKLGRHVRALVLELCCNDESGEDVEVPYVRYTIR

Experimental: After incubation for 120 minutes, quantification of the FRET is performed on the Pherostar (BMG).
For compounds whose values are marked with an asterisk (*), mouse UAE was used. For all other compounds, human UAE was used.

In general, IC50 refers to the concentration needed to halve the response being measured. Take `NS(=O)(=O)OC[C@H]1C[C@@H](Nc2ccnc3cc(-c4cccc(-c5ccccc5)c4)nn23)[C@H](O)[C@@H]1O` (racemic) [Compound I-003, (rac)((1R,2R,3S,4R)-4-(2-(biphenyl-3-yl)pyrazolo[1,5-a]pyrimidin-7-ylamino)-2,3-dihydroxycyclopentyl)methyl rel-sulfamate]: the IC50 is less than 10 nM.

As to `NS(=O)(=O)OC[C@H]1C[C@@H](Nc2ccnc3cc(-c4cccc(C(F)(F)F)c4)nn23)[C@H](O)[C@@H]1O` (racemic) [Compound I-007, (rac)-((1R,2R,3S,4R)-2,3-Dihydroxy-4-((2-(3-(trifluoromethyl)phenyl)pyrazolo[1,5-a]pyrimidin-7-yl)amino)cyclopentyl)methyl rel-sulfamate], the IC50 was less than 10 nM. For the molecule `NS(=O)(=O)OC[C@H]1C[C@@H](Nc2cc(Cl)nc3cc(-c4ccc(Br)cc4)nn23)[C@H](O)[C@@H]1O` (racemic) [Compound I-008, (rac)-((1R,2R,3S,4R)-4-(2-(4-bromophenyl)-5-chloropyrazolo[1,5-a]pyrimidin-7-ylamino)-2,3-dihydroxycyclopentyl)methyl rel-sulfamate], the IC50 lay within 100 to 1000 nM. Consider `NS(=O)(=O)OC[C@H]1C[C@@H](Nc2cc(Cl)nc3cc(-c4cccc5ccccc45)nn23)[C@H](O)[C@@H]1O` (racemic) [Compound I-009, (rac)-((1R,2R,3S,4R)-4-{[5-chloro-2-(1-naphthyl)pyrazolo[1,5-a]pyrimidin-7-yl]amino}-2,3-dihydroxycyclopentyl)methyl rel-sulfamate], for which the IC50 was 100 to 1000 nM. The same measure for `NS(=O)(=O)OC[C@H]1C[C@@H](Nc2ccnc3cc(-c4cccc5c4oc4ccccc45)nn23)[C@H](O)[C@@H]1O` (racemic) [Compound I-010, (rac)-((1R,2R,3S,4R)-4-(2-(dibenzo[b,d]furan-4-yl)pyrazolo[1,5-a]pyrimidin-7-ylamino)-2,3-dihydroxycyclopentyl)methyl rel-sulfamate]: less than 10 nM; for `NS(=O)(=O)OC[C@H]1C[C@@H](Nc2ccnc3cc(-c4ccc(Cl)cc4Cl)nn23)[C@H](O)[C@@H]1O` (racemic) [Compound I-013, (rac)-[(1R,2R,3S,4R)-4-{[2-(2,4-dichlorophenyl)pyrazolo[1,5-a]pyrimidin-7-yl]amino}-2,3-dihydroxycylopentyl]methyl rel-sulfamate]: 10 to 100 nM.

Regarding `COc1ccc(-c2cc3nc(Cl)cc(N[C@@H]4C[C@H](COS(N)(=O)=O)[C@@H](O)[C@H]4O)n3n2)cc1` (racemic) [Compound I-014, (rac)-[(1R,2R,3S,4R)-4-{[5-chloro-2-(4-methoxyphenyl)pyrazolo[1,5-a]-pyrimidin-7-yl]amino}-2,3-dihydroxycyclopentyl]methyl rel-sulfamate], the IC50 lay in the range of 100 to 1000 nM.

For the molecule `CC(C)(C)c1cccc(-c2cc3nccc(N[C@@H]4C[C@H](COS(N)(=O)=O)[C@@H](O)[C@H]4O)n3n2)c1` (racemic) [Compound I-015, (rac)-((1R,2R,3S,4R)-4-((2-(3-(tert-Butyl)phenyl)pyrazolo[1,5-a]pyrimidin-7-yl)amino)-2,3-dihydroxycyclopentyl)methyl rel-sulfamate], the IC50 is less than 10 nM.

For the molecule `NS(=O)(=O)OC[C@H]1C[C@@H](Nc2ccnc3cc(-c4ccc5ccccc5c4)nn23)[C@H](O)[C@@H]1O` (racemic) [Compound I-016, (rac)-((1R,2R,3S,4R)-2,3-dihydroxy-4-(2-(naphthalen-2-yl)pyrazolo[1,5-a]pyrimidin-7-ylamino)cyclopentyl)methyl rel-sulfamate], the IC50 is less than 10 nM. With `NS(=O)(=O)OC[C@H]1C[C@@H](Nc2ccnc3cc(-c4cccc5cccnc45)nn23)[C@H](O)[C@@H]1O` (racemic) [Compound I-017, (rac)-((1R,2R,3S,4R)-2,3-Dihydroxy-4-((2-(quinolin-8-yl)pyrazolo[1,5-a]pyrimidin-7-yl)amino)cyclopentyl)methyl rel-sulfamate], the IC50 was less than 10 nM.

As to `NS(=O)(=O)OC[C@H]1C[C@@H](Nc2ccnc3cc(-c4cncc5ccccc45)nn23)[C@H](O)[C@@H]1O` (racemic) [Compound I-018, (rac)-((1R,2R,3S,4R)-2,3-dihydroxy-4-(2-(isoquinolin-4-yl)pyrazolo[1,5-a]pyrimidin-7-ylamino)cyclopentyl)methyl rel-sulfamate], the IC50 is less than 10 nM.

Consider `NS(=O)(=O)OC[C@H]1C[C@@H](Nc2ccnc3cc(-c4ccc5oc6ccccc6c5c4)nn23)[C@H](O)[C@@H]1O` (racemic) [Compound I-019, (rac)-((1R,2R,3S,4R)-4-(2-(dibenzo[b,d]furan-2-yl)pyrazolo[1,5-a]pyrimidin-7-ylamino)-2,3-dihydroxycyclopentyl)methyl rel-sulfamate], for which the IC50 is less than 10 nM. Turning to `COc1ccc(Cl)cc1-c1cc2nccc(N[C@@H]3C[C@H](COS(N)(=O)=O)[C@@H](O)[C@H]3O)n2n1` (racemic) [Compound I-020, (rac)-((1R,2R,3S,4R)-4-(2-(5-chloro-2-methoxyphenyl)pyrazolo[1,5-a]pyrimidin-7-ylamino)-2,3-dihydroxycyclopentyl)methyl rel-sulfamate], the half-inhibitory concentration (IC50) was less than 10 nM. Take `Cc1ccc(Cl)cc1-c1cc2nccc(N[C@@H]3C[C@H](COS(N)(=O)=O)[C@@H](O)[C@H]3O)n2n1` (racemic) [Compound I-021, (rac)-((1R,2R,3S,4R)-4-(2-(5-chloro-2-methylphenyl)pyrazolo[1,5-a]pyrimidin-7-ylamino)-2,3-dihydroxycyclopentyl)methyl rel-sulfamate]: the IC50 is less than 10 nM. As to `NS(=O)(=O)OC[C@H]1C[C@@H](Nc2ccnc3cc(-c4csc5ccccc45)nn23)[C@H](O)[C@@H]1O` (racemic) [Compound I-022, (rac)-((1R,2R,3S,4R)-4-(2-(benzo[b]thiophen-3-yl)pyrazolo[1,5-a]pyrimidin-7-ylamino)-2,3-dihydroxycyclopentyl)methyl rel-sulfamate], the IC50 is less than 10 nM. With `CC1(C)COc2c(-c3cc4nccc(N[C@@H]5C[C@H](COS(N)(=O)=O)[C@@H](O)[C@H]5O)n4n3)cccc21` (racemic) [Compound I-023, (rac)-((1R,2R,3S,4R)-4-(2-(3,3-dimethyl-2,3-dihydrobenzofuran-7-yl)pyrazolo[1,5-a]pyrimidin-7-ylamino)-2,3-dihydroxycyclopentyl)methyl rel-sulfamate], the IC50 lay in the range of 10 to 100 nM. The figure for `NS(=O)(=O)OC[C@H]1C[C@@H](Nc2ccnc3cc(-c4cc5ccccc5[nH]4)nn23)[C@H](O)[C@@H]1O` (racemic) [Compound I-024, (rac)-((1R,2R,3S,4R)-4-(2-(1H-indol-2-yl)pyrazolo[1,5-a]pyrimidin-7-ylamino)-2,3-dihydroxycyclopentyl)methyl rel-sulfamate] is less than 10 nM; for `NS(=O)(=O)OC[C@H]1C[C@@H](Nc2ccnc3cc(-c4cnc5ccccc5c4)nn23)[C@H](O)[C@@H]1O` (racemic) [Compound I-025, (rac)-((1R,2R,3S,4R)-2,3-dihydroxy-4-(2-(quinolin-3-yl)pyrazolo[1,5-a]pyrimidin-7-ylamino)cyclopentyl)methyl rel-sulfamate] it is 10 to 100 nM; for `NS(=O)(=O)OC[C@H]1C[C@@H](Nc2ccnc3cc(-c4cccc5cnccc45)nn23)[C@H](O)[C@@H]1O` (racemic) [Compound I-027, (rac)-((1R,2R,3S,4R)-2,3-dihydroxy-4-(2-(isoquinolin-5-yl)pyrazolo[1,5-a]pyrimidin-7-ylamino)cyclopentyl)methyl rel-sulfamate] it is less than 10 nM.

For `NS(=O)(=O)OC[C@H]1C[C@@H](Nc2ccnc3cc(-c4cccc(Br)c4)nn23)[C@H](O)[C@@H]1O` (racemic) [Compound I-028, (rac)-((1R,2R,3S,4R)-4-((2-(3-Bromophenyl)pyrazolo[1,5-a]pyrimidin-7-yl)amino)-2,3-dihydroxycyclopentyl)methyl rel-sulfamate], the IC50 was less than 10 nM. For the molecule `NS(=O)(=O)OC[C@H]1C[C@@H](Nc2ccnc3cc(-c4c[nH]c5ccccc45)nn23)[C@H](O)[C@@H]1O` (racemic) [Compound I-032, (rac)-[(1R,2R,3S,4R)-2,3-dihydroxy-4-{[2-(1H-indol-3-yl)pyrazolo[1,5-a]pyrimidin-7-yl]amino}cyclopentyl]methyl rel-sulfamate], the half-maximal inhibitory concentration (IC50) is less than 10 nM. Consider `NS(=O)(=O)OC[C@H]1C[C@@H](Nc2ccnc3cc(-c4ccc(C(F)(F)F)c5cccnc45)nn23)[C@H](O)[C@@H]1O` (racemic) [Compound I-033, (rac)-((1R,2R,3S,4R)-2,3-dihydroxy-4-(2-(5-(trifluoromethyl)quinolin-8-yl)pyrazolo[1,5-a]pyrimidin-7-ylamino)cyclopentyl)methyl rel-sulfamate], for which the IC50 was less than 10 nM. For the molecule `NS(=O)(=O)OC[C@H]1C[C@@H](Nc2ccnc3cc(-c4ccc5ncccc5c4)nn23)[C@H](O)[C@@H]1O` (racemic) [Compound I-034, (rac)-((1R,2R,3S,4R)-2,3-dihydroxy-4-(2-(quinolin-6-yl)pyrazolo[1,5-a]pyrimidin-7-ylamino)cyclopentyl)methyl rel-sulfamate], the IC50 is less than 10 nM.

Turning to `C[Si](C)(C)c1cccc(-c2cc3nccc(N[C@@H]4C[C@H](COS(N)(=O)=O)[C@@H](O)[C@H]4O)n3n2)c1` (racemic) [Compound I-035, (rac)-((1R,2R,3S,4R)-2,3-dihydroxy-4-(2-(3-(trimethylsilyl)phenyl)pyrazolo[1,5-a]pyrimidin-7-ylamino)cyclopentyl)methyl rel-sulfamate], the IC50 was less than 10 nM. Consider `NS(=O)(=O)OC[C@H]1C[C@@H](Nc2ccnc3cc(-c4cccc(-c5ccccn5)c4)nn23)[C@H](O)[C@@H]1O` (racemic) [Compound I-036, (rac)-((1R,2R,3S,4R)-2,3-Dihydroxy-4-((2-(3-(pyridin-2-yl)phenyl)pyrazolo[1,5-a]pyrimidin-7-yl)amino)cyclopentyl)methyl rel-sulfamate], for which the IC50 is less than 10 nM. As for `NS(=O)(=O)OC[C@H]1C[C@@H](Nc2ccnc3cc(-c4ccc5[nH]c6ccccc6c5c4)nn23)[C@H](O)[C@@H]1O` (racemic) [Compound I-037, (rac)-[(1R,2R,3S,4R)-4-{[2-(9H-carbazol-3-yl)pyrazolo[1,5-a]pyrimidin-7-yl]amino}-2,3-dihydroxycyclopentyl]methyl rel-sulfamate], the half-maximal inhibitory concentration (IC50) is less than 10 nM.
